Data published in patent US8614201B2 (Janssen Pharmaceutica NV, priority 2009, dated 2013).

Molecular target: Human TRPA1 (Homo sapiens, UniProt O75762)
Assay: Alternative TRPA1 Ca2+ fluorometry assay (hTRPA1/TREx-HEK293 cells, Fluo-4, FDSS 6000)
Assay type: cell-based
Set-up: expressed in transfected cells
Settings: Fluo-4-AM, agonist 6,11-dihydro-5H-dibenzo[b,e]azepine-10-carboxylic acid methyl ester 25 nM, procedure used for Examples 184, 190 to 192, 194 to 316
Protocol: In alternative embodiments, the assay was performed using the following procedure for Examples 184, 190 to 192, and 194 to 316:
The human TRPA1 gene was cloned into the pT-Rex-Dest30 inducible vector and stably transfected in T-Rex™-293 cells (Invitrogen, Merelbeke, Belgium). This tetracycline inducible hTRPA1 expression system was used in order to prevent CA^2+ overload in the cultured cells due to sustained TRPA1 expression. hTRPA1/TREx-HEK293 cells (referred to as jTRPA1 cells in the following text) were maintained under standard sterile cell culture conditions. The culture medium for the jTRPA1-HEK cells was DMEN (Gibco BRL, Invitrogen, Merelbeke, Belgium) supplemented with 5 g/l gengticin (Gibco), 5 mL/l blasticidin (Invitorgen), 14.6 g/l L-Glutamine (200 mMl; Gibco), 5 g/l penicillin/streptomycin (5.10-6 IU/I, Gibco), 5.5 g/l pyruvic acid (Gibco) and 10% foetal calf serum (Hyclone, Logan Utah, USA).
For Ca^2+ fluorometry experiments, hTRPA1-HEK cells were resuspended in HBSS seeding medium: HBSS (with CaCl2 and MgCl2: Gibco) supplemented with 14.6 g/l L-Glutamine (200 mM; Gibco), 5 g/l penicillin/streptomycin (5.10-6 IU/l. Gibco), 5.5 g/l pyruvic acid (Gibco) and 10% foetal calf serum (heat inactivated for 30 minutes at 56° C.; Hyclone, Logan Utah, USA). The cells were seeded in poly-D-lysine-coated 384-well round bottom polypropylene plates (Costar Corning, Data Packaging, Cambridge Mass., USA) at 12000 cells/well. Fifty ng/ml tetracycline was added to induce the hTRPA1 expression 24 h before the experiment.
The cells were loaded with 5 mg/l Fluo-4-AM (Molecular Probes, Invitorgen, Merelbeke, Belgium) dissolved in HBSS seeding medium supplemented with 0.7 g/l Probenecid (Sigma) and incubated for 1 h at 37° C. and subsequently at 20° C. for 1 to 2 h. The fluorescence was measured in the FDSS 6000 imaging based plate reader (Hamamutsu Photonics K.K., Hamamutsu City, Japan). The excitation wavelength was 488 nm and the emission wavelength 540 nm. After a control period of 12 seconds the inventive compounds were added and the Ca^2+ signal was measured within 14 minutes after application. Finally, a TRPA1 agonist, 6,11-dihydro-5H-dibenzo[b,e]azepine-10-carboxylic acid methyl ester, was added at a final concentration of 25 nM. The emission ratio was calculated by dividing the emission signal (Em540) by the first EM540 signal of the control period to compensate for the background fluorescence. […] For intracellular Ca^2+ measurements, a compound stock solution (10 to 100 mM) was further diluted in DMSO in order to obtain a final 1% DMSO concentration in the extracellular solution.

Human TRPA1, sequence (O75762 whole entry): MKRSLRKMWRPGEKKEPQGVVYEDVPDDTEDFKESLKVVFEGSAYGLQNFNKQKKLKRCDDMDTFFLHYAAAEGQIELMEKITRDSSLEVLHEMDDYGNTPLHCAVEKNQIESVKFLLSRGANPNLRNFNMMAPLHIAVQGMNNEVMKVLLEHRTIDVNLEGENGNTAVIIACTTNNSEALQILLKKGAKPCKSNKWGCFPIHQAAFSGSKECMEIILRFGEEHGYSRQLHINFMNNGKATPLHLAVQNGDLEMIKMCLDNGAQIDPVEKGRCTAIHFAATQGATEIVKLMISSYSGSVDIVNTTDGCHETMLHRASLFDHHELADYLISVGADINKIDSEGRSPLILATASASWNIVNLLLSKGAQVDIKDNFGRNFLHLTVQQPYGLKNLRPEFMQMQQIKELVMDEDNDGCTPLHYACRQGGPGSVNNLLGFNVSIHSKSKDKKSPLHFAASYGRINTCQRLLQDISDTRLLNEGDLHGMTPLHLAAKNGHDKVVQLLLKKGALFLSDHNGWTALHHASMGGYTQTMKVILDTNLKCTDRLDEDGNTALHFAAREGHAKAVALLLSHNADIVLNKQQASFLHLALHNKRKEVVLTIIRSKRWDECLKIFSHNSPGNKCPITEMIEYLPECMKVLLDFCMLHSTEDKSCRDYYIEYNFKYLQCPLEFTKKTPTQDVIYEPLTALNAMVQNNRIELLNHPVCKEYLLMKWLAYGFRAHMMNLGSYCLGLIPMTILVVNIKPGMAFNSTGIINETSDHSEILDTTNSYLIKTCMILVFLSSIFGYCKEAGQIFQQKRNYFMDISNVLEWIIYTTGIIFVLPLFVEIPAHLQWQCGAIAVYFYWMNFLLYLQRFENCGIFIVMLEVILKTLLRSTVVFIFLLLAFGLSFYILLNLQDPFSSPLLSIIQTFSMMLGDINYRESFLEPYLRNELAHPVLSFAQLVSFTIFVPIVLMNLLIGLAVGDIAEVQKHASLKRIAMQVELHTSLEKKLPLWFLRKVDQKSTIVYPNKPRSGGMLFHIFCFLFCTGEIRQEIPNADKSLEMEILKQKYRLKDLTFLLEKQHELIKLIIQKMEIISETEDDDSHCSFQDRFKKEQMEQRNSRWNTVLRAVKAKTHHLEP

Compound	IC50
N#Cc1cccc(-c2cc(CNC(=O)[C@@H]3CCCN3S(=O)(=O)c3ccc(F)cc3)nc(N3CCN(c4ccccc4F)CC3)n2)c1 [Example 235, 1-(4-Fluoro-benzenesulfonyl)-pyrrolidine-2S-carboxylic acid {6-(3-cyano-phenyl)-2-[4-(2-fluoro-phenyl)-piperazin-1-yl]-pyrimidin-4-ylmethyl}-amide]	5.89 µM
O=C(NCc1cc(-c2ccc3c(c2)OCO3)nc(N2CCN(c3ccccc3F)CC2)n1)[C@@H]1CCCN1S(=O)(=O)c1ccc(F)cc1 [Example 238, 1-(4-Fluoro-benzenesulfonyl)-pyrrolidine-2S-carboxylic acid {6-benzo[1,3]dioxol-5-yl-2-[4-(2-fluoro-phenyl)-piperazin-1-yl]-pyrimidin-4-ylmethyl}-amide]	1.29 µM
O=C(NCc1cc(-c2cccc(Cl)c2)nc(N2CCN(c3ccccc3F)CC2)n1)[C@@H]1CCCN1S(=O)(=O)c1ccc(F)cc1 [Example 239, 1-(4-Fluoro-benzenesulfonyl)-pyrrolidine-2S-carboxylic acid {6-(3-chloro-phenyl)-2-[4-(2-fluoro-phenyl)-piperazin-1-yl]-pyrimidin-4-ylmethyl}-amide]	5.01 µM
O=C(NCc1cc(-c2ccccc2Cl)nc(N2CCN(c3ccccc3F)CC2)n1)[C@@H]1CCCN1S(=O)(=O)c1ccc(F)cc1 [Example 242, 1-(4-Fluoro-benzenesulfonyl)-pyrrolidine-2-carboxylic acid {6-(2-chloro-phenyl)-2-[4-(2-fluoro-phenyl)-piperazin-1-yl]-pyrimidin-4-ylmethyl}-amide]	~1.1 µM

Continued, values first:

IC50	Compound
~0.372 µM	O=C(NCc1cc(-c2ccc(F)cc2F)nc(N2CCN(c3ccccc3F)CC2)n1)[C@@H]1CCCN1S(=O)(=O)c1ccc(F)cc1 [Example 233, 1-(4-Fluoro-benzenesulfonyl)-pyrrolidine-2S-carboxylic acid {6-(2,4-difluoro-phenyl)-2-[4-(2-fluoro-phenyl)-piperazin-1-yl]-pyrimidin-4-ylmethyl}-amide]
> 10 µM	O=C(NCc1cc(-c2cccc(OC(F)(F)F)c2)nc(N2CCN(c3ccccc3F)CC2)n1)[C@@H]1CCCN1S(=O)(=O)c1ccc(F)cc1 [Example 234, 1-(4-Fluoro-benzenesulfonyl)-pyrrolidine-2S-carboxylic acid [2-[4-(2-fluoro-phenyl)-piperazin-1-yl]-6-(3-trifluoromethoxy-phenyl)-pyrimidin-4-ylmethyl]-amide]
> 10 µM	Cc1cc(C)cc(-c2cc(CNC(=O)[C@@H]3CCCN3S(=O)(=O)c3ccc(F)cc3)nc(N3CCN(c4ccccc4F)CC3)n2)c1 [Example 236, 1-(4-Fluoro-benzenesulfonyl)-pyrrolidine-2S-carboxylic acid {6-(3,5-dimethyl-phenyl)-2-[4-(2-fluoro-phenyl)-piperazin-1-yl]-pyrimidin-4-ylmethyl}-amide]
> 10 µM	CN(C)c1cccc(-c2cc(CNC(=O)[C@@H]3CCCN3S(=O)(=O)c3ccc(F)cc3)nc(N3CCN(c4ccccc4F)CC3)n2)c1 [Example 237, 1-(4-Fluoro-benzenesulfonyl)-pyrrolidine-2S-carboxylic acid {6-(3-dimethylamino-phenyl)-2-[4-(2-fluoro-phenyl)-piperazin-1-yl]-pyrimidin-4-ylmethyl}-amide]
~0.933 µM	Cc1cccc(C)c1-c1cc(CNC(=O)[C@@H]2CCCN2S(=O)(=O)c2ccc(F)cc2)nc(N2CCN(c3ccccc3F)CC2)n1 [Example 240, 1-(4-Fluoro-benzenesulfonyl)-pyrrolidine-2S-carboxylic acid {6-(2,6-dimethyl-phenyl)-2-[4-(2-fluoro-phenyl)-piperazin-1-yl]-pyrimidin-4-ylmethyl}-amide]
0.417 µM	O=C(NCc1cc(-c2ccc(Cl)cc2)nc(N2CCN(c3ccccc3F)CC2)n1)[C@@H]1CCCN1S(=O)(=O)c1ccc(F)cc1 [Example 241, 1-(4-Fluoro-benzenesulfonyl)-pyrrolidine-2-carboxylic acid {6-(4-chloro-phenyl)-2-[4-(2-fluoro-phenyl)-piperazin-1-yl]-pyrimidin-4-ylmethyl}-amide]
